This passage reports TGI results from PubChem BioAssay (NCI).

What all share (assay): DTP human tumour cell line panel, 48 h
In test [1] the test system is HCT-116 colon.
In test [2] the test system is MALME-3M melanoma.
The test system of test [3] is NCI-H460 lung.
In test [4] the test system is MOLT-4 leukemia.
Test [5] concerns SR leukemia.
In test [6] the test system is OVCAR-4 ovarian.
The test system of test [7] is U251 CNS.
For test [8], the system named is SK-OV-3 ovarian.
Test [9] relates to MDA-N.
Test [10] has as its system 786-0 renal.
For test [11], the system named is SF-539 CNS.
For test [12], the system named is COLO 205 colon.
The subject of test [13] is OVCAR-3 ovarian.
Test [14] has as its system HOP-92 NSCLC.
For test [15], the system named is CAKI-1 renal.
Test [16] has as its system A498 renal.

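Following 48 hours of exposure in 96-well plates, responses at five concentrations were used to interpolate endpoints linearly. TGI denotes the concentration required for complete inhibition of growth.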

`CCOC(=O)Cn1c(=O)c2nc(SC)sc2n(CC)c1=S`: the TGI in test [1], in [2], in [3], in [4], in test [5] and in [6] was greater than 100 µM throughout. The TGI was greater than 100 µM in [7]; greater than 100 µM in [8]; greater than 100 µM in [9]; 0.32 µM in test [10]; greater than 100 µM in test [11]; greater than 100 µM in [12]. In addition, the TGI in test [13] and in test [14] was greater than 100 µM in each case.

On to `S=C1N(/N=C/c2c3ccccc3cc3ccccc23)C(=Nc2ccccc2)C(=Nc2ccccc2)N1c1ccccc1`, for which the TGI in [1], in test [2], in test [3], in test [4], in test [5] and in [15] was greater than 100 µM each time. The TGI in [7], in test [8], in test [9], in [10], in [11] and in test [12] was greater than 100 µM in each case. Further, the TGI in test [13] and in [14] was greater than 100 µM throughout.

For `CC[C@@H]1CC[C@@H]2[C@H](CC[C@]3(C)[C@@H](OS(=O)(=O)c4ccc(C)cc4)CC[C@@H]23)[C@H]1COS(=O)(=O)c1ccc(C)cc1`, the TGI in test [1], in test [2], in [3], in [4], in [5] and in test [6] was greater than 100 µM in each case. Also, the TGI in [7], in test [9], in [10], in [11], in test [16] and in test [14] was greater than 100 µM throughout.

Turning to `CN(C)CCNC(=O)c1cc([N+](=O)[O-])cc2c1Oc1ccccc1O2`, the TGI in [1] is greater than 100 µM; in [2] it was 97.9 µM; in test [3], greater than 100 µM; in [4], 51.1 µM; in [5], greater than 100 µM; in test [15], greater than 100 µM. Besides, the TGI is greater than 100 µM in test [6]; greater than 100 µM in test [7]; greater than 100 µM in [9]; greater than 100 µM in test [10]; greater than 100 µM in test [11]; 33.3 µM in test [12]. Besides, the TGI in test [13] and in [16] was greater than 100 µM throughout.

As for `O=C1CSC(c2ccc([N+](=O)[O-])cc2)N1c1ccc(-n2c(-c3ccccc3)nc3ccccc3c2=O)cc1` (stereo unspecified), the total growth inhibition concentration (TGI) in test [1], in test [2], in test [3], in [4], in [5] and in test [15] was greater than 100 µM each time. Further, the TGI in [6] is 95.7 µM; in test [7], greater than 100 µM; in [8], greater than 100 µM; in test [9], greater than 100 µM; in test [10] it was greater than 100 µM; in test [11] it was greater than 100 µM. Moreover, the TGI in test [12], in test [13] and in [16] was greater than 100 µM in each case.

On to `CC(C)OCC1CC(CC(=O)Nc2nncs2)C(=O)O1` (stereo unspecified), for which the TGI in test [1], in test [3], in [4], in test [5], in [15] and in [6] was greater than 100 µM each time. The TGI in test [7], in test [8], in [9], in [10], in test [11] and in test [12] was greater than 100 µM each time. In addition, the TGI in test [13] and in test [14] was greater than 100 µM in each case.

Consider `Cc1nn(C(=O)Cc2ccccc2)c2c1C(c1ccc(O)cc1O)SC(N)=N2` (stereo unspecified), for which the TGI in test [1], in test [2], in [3], in [4], in [5] and in test [15] was greater than 100 µM in each case. The TGI in [8], in test [9], in test [10], in test [11], in test [12] and in test [16] was greater than 100 µM in each case.

Take `COc1cc(OC)nc(-n2c(N)c(C#N)c3ccc([N+](=O)[O-])cc3c2=O)n1`: the total growth inhibition concentration (TGI) in [1], in [3], in test [4], in test [5], in [15] and in [6] was greater than 100 µM throughout. The TGI in [7], in [9], in test [10], in test [11], in test [12] and in test [13] was greater than 100 µM in each case. Also, the TGI in test [16] and in test [14] was greater than 100 µM throughout.

Regarding `CN1CNc2nc(N)n(C)c(=O)c2C1`, the TGI in [2], in [3], in test [4], in test [5], in test [6] and in [7] was greater than 10 µM throughout. The TGI in [8], in test [9], in test [10], in test [11], in test [13] and in test [14] was greater than 10 µM throughout.

For the molecule `CC(C)(C)OC(=O)N1CCC(C(=O)O)CC1`, the TGI in test [1], in [2], in test [3], in test [4], in test [5] and in [15] was greater than 100 µM each time. Moreover, the TGI in [6], in test [7], in test [9], in test [10], in test [11] and in [12] was greater than 100 µM throughout. Moreover, the TGI in test [13], in [16] and in test [14] was greater than 100 µM in each case.

The TGI is the concentration giving total growth inhibition. Low readings indicate more potent growth arrest, high ones less potent growth arrest.
